This is an account of results in patent US12617783B2, “Heterocyclic GLP-1R agonists” (BIOMEA FUSION, INC., priority 2024, dated 2026).

T1 sequence (P43220 24-463): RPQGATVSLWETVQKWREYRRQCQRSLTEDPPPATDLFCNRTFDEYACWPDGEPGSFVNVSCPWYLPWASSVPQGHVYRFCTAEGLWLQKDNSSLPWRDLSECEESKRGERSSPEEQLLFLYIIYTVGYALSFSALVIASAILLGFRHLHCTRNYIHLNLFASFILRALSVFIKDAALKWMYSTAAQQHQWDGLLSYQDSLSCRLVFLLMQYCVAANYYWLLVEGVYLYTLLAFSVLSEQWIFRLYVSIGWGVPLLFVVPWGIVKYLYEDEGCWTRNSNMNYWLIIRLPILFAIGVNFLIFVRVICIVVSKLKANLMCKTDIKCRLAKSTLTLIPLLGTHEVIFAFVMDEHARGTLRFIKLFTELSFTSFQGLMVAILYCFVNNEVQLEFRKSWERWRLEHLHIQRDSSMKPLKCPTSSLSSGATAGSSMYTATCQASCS

One assay has as its target T1, human GLP-1R (Homo sapiens, UniProt P43220).
T1 construct: host or cells: HEK293
The assay is described as follows: GLP-1R cAMP assay (Example B1a, HTRF, 30 min at room temperature). Format: cell-based. Particulars: cAMP accumulation in HEK293 expressing human GLP-1R, no BETP, 30 min room temperature (Method B1a, compounds ID 1-609), Table 1; read-out: EC50. On the procedure:
Assay was carried out with HEK293 expressing human GLP-1R using HTRF assay, developed by Wuxi Apptec. The method is a competitive assay between native cAMP produced by the cells and exogenous cAMP labeled with a proprietary dye d2. The tracer binding is visualized by a mAb anti-cAMP labeled with Cryptate. The signal (i.e. energy transfer) is inversely proportional to the concentration of CAMP in either standard or experimental sample. Compounds were tested in the absence of BETP. Ten microliter of cell suspension in assay buffer (5 mM HEPES, 500 μM IBMX, 0.1% BSA) were added to each well (1,000 cells per well) in a low volume 384-well plate for the assay. Serially diluted compounds were added in 100 nL volume to duplicate wells, by Labcyte Echo. GLP-1 (7-37) was used as positive control. Assay plate was incubated for 30 minutes at room temperature. Stock of cAMP Detection Solution was prepared by mixing 38 parts of cAMP lysis buffer, 1 part of cAMP-D2, 1 part of anti-cAMP cryptate reagent (Cisbio #62AM4PEJ). Ten microliter of the cAMP Detection Solution was added to each well, and the assay plate was incubated for 1 hour at room temperature in the dark. Plates were read on Envision plate reader. The data were analyzed by ScreenUltra in Dotmatics, with % activation expressed using following formula: (Well data−negative control)/(postive control−negative control)*100. Dose response curves were plotted and EC50 values calculated by non-linear regression using 4-parameter fit.
Regarding `Cc1cc(-n2nc3c(c2-n2ccn(-c4ccc5c(cnn5C)c4F)c2=O)[C@@H]2CC[C@H](C3)N2C(=O)c2cc3ccc(C4CCOCC4)cc3nc2C2(c3noc(=O)[nH]3)CC2C)cc(C)c1F` (single isomer, unassigned) [Compound 237], the EC50 amounted to 123 nM. For the molecule `Cc1cc(-n2nc3c(c2-n2cc(-c4ccc5c(cnn5C)c4F)nn2)[C@H](C)N(C(=O)c2cc4cc([C@H]5CCOC(C)(C)C5)ccc4n2[C@@]2(c4noc(=O)[nH]4)C[C@@H]2C)CC3)cc(C)c1F` [Compound 1, 3-((1S,2S)-1-(5-((S)-2,2-dimethyltetrahydro-2H-pyran-4-yl)-2-((S)-3-(4-(4-fluoro-1-methyl-1H-indazol-5-yl)-1H-1,2,3-triazol-1-yl)-2-(4-fluoro-3,5-dimethylphenyl)-4-methyl-4,5,6,7-tetrahydro-2H-pyrazolo[4,3-c]pyridine-5-carbonyl)-1H-indol-1-yl)-2-methylcyclopropyl)-1,2,4-oxadiazol-5 (4H)-one], the EC50 is greater than 10000 nM. On to `Cc1cc(-n2nc3c(c2-c2nnc(-c4ccc5c(cnn5C)c4F)o2)[C@H](C)N(C(=O)c2cc4cc([C@H]5CCOC(C)(C)C5)ccc4n2[C@@]2(c4noc(=O)[nH]4)C[C@@H]2C)CC3)cc(C)c1F` [Compound 5, 3-((1S,2S)-1-(5-((S)-2,2-dimethyltetrahydro-2H-pyran-4-yl)-2-((S)-3-(5-(4-fluoro-1-methyl-1H-indazol-5-yl)-1,3,4-oxadiazol-2-yl)-2-(4-fluoro-3,5-dimethylphenyl)-4-methyl-4,5,6,7-tetrahydro-2H-pyrazolo[4,3-c]pyridine-5-carbonyl)-1H-indol-1-yl)-2-methylcyclopropyl)-1,2,4-oxadiazol-5 (4H)-one], for which the 50% effective concentration (EC50) was greater than 10000 nM. On the same count and under the same terms, under `Cc1cc(-n2nc3c(c2-c2ncn(-c4ccc5c(cnn5C)c4F)c2C)[C@H](C)N(C(=O)c2cc4cc([C@H]5CCOC(C)(C)C5)ccc4n2[C@@]2(c4noc(=O)[nH]4)C[C@@H]2C)CC3)cc(C)c1F` [Compound 15, 3-((1S,2S)-1-(5-((S)-2,2-dimethyltetrahydro-2H-pyran-4-yl)-2-((S)-3-(1-(4-fluoro-1-methyl-1H-indazol-5-yl)-5-methyl-1H-imidazol-4-yl)-2-(4-fluoro-3,5-dimethylphenyl)-4-methyl-4,5,6,7-tetrahydro-2H-pyrazolo[4,3-c]pyridine-5-carbonyl)-1H-indol-1-yl)-2-methylcyclopropyl)-1,2,4-oxadiazol-5 (4H)-one] stands 584 nM; under `Cc1cc(-n2nc3c(c2-c2nc(-c4ccc5c(cnn5C)c4F)cn2C)[C@H](C)N(C(=O)c2cc4cc([C@H]5CCOC(C)(C)C5)ccc4n2[C@@]2(c4noc(=O)[nH]4)C[C@@H]2C)CC3)cc(C)c1F` [Compound 21, 3-((1S,2S)-1-(5-((S)-2,2-dimethyltetrahydro-2H-pyran-4-yl)-2-((S)-3-(4-(4-fluoro-1-methyl-1H-indazol-5-yl)-1-methyl-1H-imidazol-2-yl)-2-(4-fluoro-3,5-dimethylphenyl)-4-methyl-4,5,6,7-tetrahydro-2H-pyrazolo[4,3-c]pyridine-5-carbonyl)-1H-indol-1-yl)-2-methylcyclopropyl)-1,2,4-oxadiazol-5 (4H)-one], 591 nM. The same measure, in the same setting: under `Cc1cc(-n2nc3c(c2N2C(=O)CN(c4ccc5c(cnn5C)c4F)C2=O)[C@H](C)N(C(=O)c2cc4cc([C@H]5CCOC(C)(C)C5)ccc4n2[C@@]2(c4noc(=O)[nH]4)C[C@@H]2C)CC3)cc(C)c1F` [Compound 23, 3-((S)-5-(5-((S)-2,2-dimethyltetrahydro-2H-pyran-4-yl)-1-((1S,2S)-2-methyl-1-(5-oxo-4,5-dihydro-1,2,4-oxadiazol-3-yl)cyclopropyl)-1H-indole-2-carbonyl)-2-(4-fluoro-3,5-dimethylphenyl)-4-methyl-4,5,6,7-tetrahydro-2H-pyrazolo[4,3-c]pyridin-3-yl)-1-(4-fluoro-1-methyl-1H-indazol-5-yl) imidazolidine-2,4-dione] stands 361 nM; under `Cc1cc(-n2nc3c(c2-c2nc(-c4ccc5c(cnn5C)c4F)c(C)[nH]2)[C@H](C)N(C(=O)c2cc4cc([C@H]5CCOC(C)(C)C5)ccc4n2[C@@]2(c4noc(=O)[nH]4)C[C@@H]2C)CC3)cc(C)c1F` [Compound 24, 3-((1S,2S)-1-(5-((S)-2,2-dimethyltetrahydro-2H-pyran-4-yl)-2-((S)-3-(4-(4-fluoro-1-methyl-1H-indazol-5-yl)-5-methyl-1H-imidazol-2-yl)-2-(4-fluoro-3,5-dimethylphenyl)-4-methyl-4,5,6,7-tetrahydro-2H-pyrazolo[4,3-c]pyridine-5-carbonyl)-1H-indol-1-yl)-2-methylcyclopropyl)-1,2,4-oxadiazol-5 (4H)-one], greater than 10000 nM.

Turning to `Cc1cc(-n2nc3c(c2N2CCN(c4ccc5c(cnn5C)c4F)C(=O)C2=O)[C@H](C)N(C(=O)c2cc4cc([C@H]5CCOC(C)(C)C5)ccc4n2[C@@]2(c4noc(=O)[nH]4)C[C@@H]2C)CC3)cc(C)c1F` [Compound 28, 1-((S)-5-(5-((S)-2,2-dimethyltetrahydro-2H-pyran-4-yl)-1-((1S,2S)-2-methyl-1-(5-oxo-4,5-dihydro-1,2,4-oxadiazol-3-yl)cyclopropyl)-1H-indole-2-carbonyl)-2-(4-fluoro-3,5-dimethylphenyl)-4-methyl-4,5,6,7-tetrahydro-2H-pyrazolo[4,3-c]pyridin-3-yl)-4-(4-fluoro-1-methyl-1H-indazol-5-yl) piperazine-2,3-dione], the half-maximal effective concentration (EC50) was greater than 10000 nM.

As to `Cc1cc(-n2nc3c(c2-c2ncn(-c4ccc5c(cnn5C)c4F)c2C)[C@H](C)N(C(=O)c2cc4cc([C@H]5CCOC(C)(C)C5)ccc4n2C2(c4noc(=O)[nH]4)CC2)CC3)cc(C)c1F` [Compound 30, 3-(1-(5-((S)-2,2-dimethyltetrahydro-2H-pyran-4-yl)-2-((4S)-3-(1-(4-fluoro-1-methyl-1H-indazol-5-yl)-5-methyl-1H-imidazol-4-yl)-2-(4-fluoro-3,5-dimethylphenyl)-4-methyl-4,5,6,7-tetrahydro-2H-pyrazolo[4,3-c]pyridine-5-carbonyl)-1H-indol-1-yl)cyclopropyl)-1,2,4-oxadiazol-5 (4H)-one], the EC50 was greater than 10000 nM. The same measure, in the same setting: in the case of `Cc1cc(-n2nc3c(c2-n2ccn(-c4ccc5c(cnn5C)c4F)c2=O)C2CCC(C3)N2C(=O)c2cc3cc([C@H]4CCOC(C)(C)C4)ccc3n2[C@@]2(c3noc(=O)[nH]3)C[C@@H]2C)cc(C)c1F` (stereo partly drawn) [Compound 32, 3-((1S,2S)-1-(5-((S)-2,2-dimethyltetrahydro-2H-pyran-4-yl)-2-(3-(3-(4-fluoro-1-methyl-1H-indazol-5-yl)-2-oxo-2,3-dihydro-1H-imidazol-1-yl)-2-(4-fluoro-3,5-dimethylphenyl)-2,4,5,6,7,8-hexahydro-4,7-epiminocyclohepta [c]pyrazole-9-carbonyl)-1H-indol-1-yl)-2-methylcyclopropyl)-1,2,4-oxadiazol-5 (4H)-one] it was 92.6 nM; in that of `Cc1cc(-n2nc3c(c2-n2ccn(-c4ccc5c(cnn5C)c4F)c2=O)[C@H]2CC[C@@H](C3)N2C(=O)c2cc3cc([C@H]4CCOC(C)(C)C4)ccc3n2[C@@]2(c3noc(=O)[nH]3)C[C@@H]2C)cc(C)c1F` [Compound 35, 3-((1S,2S)-1-(5-((S)-2,2-dimethyltetrahydro-2H-pyran-4-yl)-2-((4R,7S)-3-(3-(4-fluoro-1-methyl-1H-indazol-5-yl)-2-oxo-2,3-dihydro-1H-imidazol-1-yl)-2-(4-fluoro-3,5-dimethylphenyl)-2,4,5,6,7,8-hexahydro-4,7-epiminocyclohepta [c]pyrazole-9-carbonyl)-1H-indol-1-yl)-2-methylcyclopropyl)-1,2,4-oxadiazol-5 (4H)-one], no less than 100000 nM; in that of `Cc1cc(-n2nc3c(c2-c2ncn(-c4ccc5c(cnn5C)c4F)c2C)[C@H](C)N(C(=O)c2cc4cc(C5=CCC(F)(F)CC5)ccc4n2C2(c4noc(=O)[nH]4)CC2)CC3)cc(C)c1F` [Compound 105, 3-[1-[5-(4,4-difluorocyclohexen-1-yl)-2-[(4S)-2-(4-fluoro-3,5-dimethyl-phenyl)-3-[1-(4-fluoro-1-methyl-indazol-5-yl)-5-methyl-imidazol-4-yl]-4-methyl-6,7-dihydro-4H-pyrazolo[4,3-c]pyridine-5-carbonyl]indol-1-yl]cyclopropyl]-4H-1,2,4-oxadiazol-5-one], greater than 10000 nM.

For the molecule `Cc1cc(-n2nc3c(c2-c2ncn(-c4ccc5c(cnn5C)c4F)c2C)[C@H](C)N(C(=O)c2cc4cc(C5CCC(F)(F)CC5)ccc4n2C2(c4noc(=O)[nH]4)CC2)CC3)cc(C)c1F` [Compound 106, 3-[1-[5-(4,4-difluorocyclohexyl)-2-[(4S)-2-(4-fluoro-3,5-dimethyl-phenyl)-3-[1-(4-fluoro-1-methyl-indazol-5-yl)-5-methyl-imidazol-4-yl]-4-methyl-6,7-dihydro-4H-pyrazolo[4,3-c]pyridine-5-carbonyl]indol-1-yl]cyclopropyl]-4H-1,2,4-oxadiazol-5-one], the EC50 is greater than 10000 nM.

Still in this assay, the particulars now being: text to Table 1d, bridge atoms configured out of the plane or toward the reader.
As for `Cc1cc(-n2nc3c(c2-n2ccn(-c4ccc5c(cnn5C)c4F)c2=O)[C@H]2CC[C@@H](C3)N2C(=O)c2cc3cc([C@H]4CCOC(C)(C)C4)ccc3n2[C@@]2(c3noc(=O)[nH]3)C[C@@H]2C)cc(C)c1F` [Compound 35, 3-((1S,2S)-1-(5-((S)-2,2-dimethyltetrahydro-2H-pyran-4-yl)-2-((4R,7S)-3-(3-(4-fluoro-1-methyl-1H-indazol-5-yl)-2-oxo-2,3-dihydro-1H-imidazol-1-yl)-2-(4-fluoro-3,5-dimethylphenyl)-2,4,5,6,7,8-hexahydro-4,7-epiminocyclohepta [c]pyrazole-9-carbonyl)-1H-indol-1-yl)-2-methylcyclopropyl)-1,2,4-oxadiazol-5 (4H)-one], the potency result is “little or no potency”.
